Measured values taken from patent US7091345B2, “Amino-substituted dihydropyrimido[4,5-D]pyrimidinone derivatives” (Hoffmann-La Roche Inc., priority 2002, dated 2006).
pIC50: −log10 of the molar value. Counter-ions that a name gives are not always drawn.

Key:
[1] = target: T1, Src (p60^c-src) (Homo sapiens, UniProt P12931); experiment: SRC-Inhibitor-Assay, time-resolved fluorescence kinase assay (Src); type: biochemical; settings: ATP 5 μM; enzyme 2.5 U/ml; pre-incubation 15 min at 15° C.; read-out: IC 50 (src)
T1 construct: purchased Upstate (UBI)
Experimental: (§1) The activity of the compounds according to this invention as inhibitors for the src-family tyrosine kinases was shown by using the following assay.
(§2) SRC-Inhibitor-Assay Parameters:
(§3) Assay buffer: 4 mM MgCl2 • 2 mM TCEP • 50 mM HEPES • 0,1% Tween 20 • pH 7.3
(§4) Material: Eu-labelled phosphotyrosine antibody:—for Lck Cisbio Mab PT66-K, for Src EG&G Wallac PT66 Eu-W1024 (all commercially available). Peptides: Ro: NH2-A-E-E-E-I-Y-G-E-F-E-A-K-K-K-K-CONH2, and Ja133-Ro: Ja133-G-Aminocaprylic acid-A-E-E-E-I-Y-G-E-F-E-A-K-K-K-K-CONH2, wherein Ja133 is LightCycler-Red 640-N-hydroxy succinimide ester; whereby both peptides were synthesized by an optimized solid phase peptide synthesis protocol (Merrifield, Fed. Proc. Fed. Amer. Soc. Exp. Biol. 21 (1962) 412) on a Zinsser SMP350 peptide synthesizer. Shortly, the peptide was assembled on 160 mg (22.8 μmol scale) of a Rink-Linker modified polystyrene solid phase by repeatedly conjugating an twenty fold excess of amino acids each protected by temporary piperidine labile Fmoc- and permanent acid labile tert-Bu-, BOC— and Otert-Bu-groups depending on the side chain function. The substrate sequence AEEEIYGEFEAKKKK was N-terminal additionally mounted with the spacer amino acids Aminocaprylic acid and Glycin. After cleavage of the N-terminal temporary protecting group the still attached and protected peptide was labeled with a 1.5 fold amount of LightCycler-Red 640-N-hydroxy succinimide ester (purchased by Roche Diagnostics GmbH) and triethylamine. After 3 hrs. the resin was washed with Dimethylformamide and Isopropanol until the eluates of the blue resin got colourless. […] The substrate was finally isolated by a preparative reverse phase HPLC purification. The purification yielded 12.2 mg RP-HPLC single peak pure blue material (lyophilisate). The identity was proven by MALDI mass spectroscopy [2720.0]. Enzymes: Upstate Lck (p56^lck, active), Upstate Src (p60^c-src, partially purified) were purchased from UBI. Time-resolved Fluorescence Assay: Reader: Perkin Elmer, Wallac Viktor 1420-040 multilabel counter; Liquid handling system: Beckman Coulter, Biomek 2000. ATP, Tween 20, HEPES were purchased from Roche Molecular Biochemicals, MgCl2 and MnCl2 were purchased from Merck Eurolab, TCEP was purchased from Pierce, 384 Well low volume fluorescence plates was purchased from Falcon. Assay Description:
(§5) At first the enzyme is pre-incubated for 15 min. at 15° C. in aqueous solution with corresponding amounts of inhibitors according to this invention. Then the phosphorylation reaction is started by adding a reaction mixture, containing ATP, Peptide and PT66, and subsequent shaking. The proceeding of this reaction is immediately monitored using time resolved fluorescence spectroscopy in a suitable well plate reader.
(§6) The IC50-values can be obtained from the reaction rates by using a non-linear curve fit (Excelfit).

[2] = target: T2, Lck (p56^lck) (Homo sapiens, UniProt P06239); experiment: SRC-Inhibitor-Assay, time-resolved fluorescence kinase assay (Lck); type: biochemical; settings: ATP 5 μM; enzyme 2.5 U/ml; pre-incubation 15 min at 15° C.; read-out: IC 50 (lck)
T2 construct: purchased Upstate (UBI)
Experimental: as §1, §2, §3, §4, §5, §6

[3] = Pharmacokinetic study in mice, plasma levels after single p.o. dose; type: in vivo; settings: male NMRI mice, p.o. single dose 30 mg/kg as micro-suspension, dose-normalised
Experimental: A preferred pharmaceutical preparation was obtained by using the following procedure: • 1. Weigh 4.0 g glass beads in custom made tube GL 25, 4 cm (the beads fill half of the tube). • 2. Add 50 mg compound, disperse with spatulum and vortex. • 3. Add 2 ml gelatin solution (weight beads: gelatin solution=2:1) and vortex. • 4. Cap and wrap in aluminium foil for light protection. • 5. Prepare a counter balance for the mill. • 6. Mill for 4 hours, 20/s in a Retsch mill (for some substances up to 24 hours at 30/s). • 7. Extract suspension from beads with two layers of filter (100 μm) on a filter holder, coupled to a recipient vial by centrifugation at 400 g for 2 min. • 8. Move extract to measuring cylinder. • 9. Repeat washing with small volumes (here 1 ml steps) until final volume is reached or extract is clear. • 10. Fill up to final volume with gelatin and homogenise.
The above described preparation yields micro-suspensions of the compounds of formula I with particle sizes between 1 and 10 μm. The suspensions are suitable for oral applications and were used in the in vivo pharmacokinetic testings described below.
To male NMRI mice of 29–35 g body weight the compounds according to this invention were given p.o. as micro-suspensions (7.5% modified gelatine and 0.22% NaCl) in doses of 30 mg/kg (Drug concentration: 3 mg/mL. Administered volume: 10 mL/kg) and as single dose administration. Study Protocol:
Animals were fasted overnight up to 4 hrs. after administration of the compound. For each single p.o. dose the mice were allocated to 3 groups with 4 animals each. Blood samples are taken from group 1 at 0.5, 3 and 24 hours, from group 2 at 1 and 6 hours, and from group 3 at 2 and 8 hours.
Blood samples of about 200 μl were obtained by retro-orbital puncture. Plasma samples were obtained from heparinized/EDTA blood by centrifugation at room temperature, and stored frozen at −20° C. until analysis.
Plasma was deproteinated and subsequently analysed for plasma levels of the compound by a compound specific HPLC-MS method. WinNonlin™ was used to calculate the pharmacokinetic parameters.

T2 sequence (P06239 whole entry, species assumed): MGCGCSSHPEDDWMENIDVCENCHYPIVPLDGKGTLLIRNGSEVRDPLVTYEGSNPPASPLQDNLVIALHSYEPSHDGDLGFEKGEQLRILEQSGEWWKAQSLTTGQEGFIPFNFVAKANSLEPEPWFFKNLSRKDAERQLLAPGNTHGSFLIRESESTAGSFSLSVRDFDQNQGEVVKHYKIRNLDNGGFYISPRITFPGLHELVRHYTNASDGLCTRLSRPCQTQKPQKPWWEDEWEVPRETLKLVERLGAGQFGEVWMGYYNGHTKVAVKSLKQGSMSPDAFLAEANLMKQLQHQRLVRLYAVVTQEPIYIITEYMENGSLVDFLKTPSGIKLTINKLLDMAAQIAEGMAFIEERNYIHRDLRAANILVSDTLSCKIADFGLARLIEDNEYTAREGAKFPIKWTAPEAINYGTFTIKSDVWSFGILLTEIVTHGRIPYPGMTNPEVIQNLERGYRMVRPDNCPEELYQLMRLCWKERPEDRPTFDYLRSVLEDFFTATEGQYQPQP
T1 sequence (P12931 whole entry): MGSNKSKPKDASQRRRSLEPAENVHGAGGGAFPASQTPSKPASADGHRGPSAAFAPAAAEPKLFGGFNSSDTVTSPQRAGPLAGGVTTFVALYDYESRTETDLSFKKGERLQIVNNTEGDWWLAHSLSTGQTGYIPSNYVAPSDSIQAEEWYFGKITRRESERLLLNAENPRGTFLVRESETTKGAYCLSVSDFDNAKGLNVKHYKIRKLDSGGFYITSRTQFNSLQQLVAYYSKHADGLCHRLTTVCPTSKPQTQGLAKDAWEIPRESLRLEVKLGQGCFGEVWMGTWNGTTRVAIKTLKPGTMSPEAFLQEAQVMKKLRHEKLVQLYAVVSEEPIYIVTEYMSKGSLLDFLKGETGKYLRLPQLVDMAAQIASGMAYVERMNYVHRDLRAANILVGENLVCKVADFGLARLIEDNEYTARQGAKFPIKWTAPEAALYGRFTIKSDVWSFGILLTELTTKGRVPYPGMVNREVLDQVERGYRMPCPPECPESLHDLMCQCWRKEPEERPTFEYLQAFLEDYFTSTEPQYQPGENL

SMILES | pIC50 [1] | pIC50 [2] | AUC = area under the curve from T = 0 to T = 24 hrs [3]
CC1c2cnc(Nc3ccc4c(c3)S(=O)(=O)CCO4)nc2N(C)C(=O)N1c1ccccc1Br (single isomer, unassigned; enantiomer 1) [Example 8a, 3-(2-Bromo-phenyl)-7-(4,4-dioxo-3,4-dihydro-2H-4λ^6-benzo[1,4]oxathiin-6-ylamino)-1,4-dimethyl-3,4-dihydro-1H-pyrimido[4,5-d]pyrimidin-2-one; enantiomer 1] | 9.40 | 8.09 | 
CC1c2cnc(Nc3ccc4c(c3)S(=O)(=O)CC(=O)N4C)nc2N(C)C(=O)N1c1ccccc1Br (single isomer, unassigned; enantiomer 1) [Example 13-52, 3-(2-Bromo-phenyl)-1,4-dimethyl-7-(4-methyl-1,1,3-trioxo-1,2,3,4-tetrahydro-1λ^6-benzo[1,4]thiazin-7-ylamino)-3,4-dihydro-1H-pyrimido[4,5-d]pyrimidin-2-one; enantiomer 1] | 10.72 | 10.61 | 
CC1c2cnc(Nc3ccc4c(c3)S(=O)(=O)CCO4)nc2N(C)C(=O)N1c1ccccc1Br (single isomer, unassigned; enantiomer 2) [Example 13-50, 3-(2-Bromo-phenyl)-7-(4,4-dioxo-3,4-dihydro-2H-4λ^6-benzo[1,4]oxathiin-6-ylamino)-1,4-dimethyl-3,4-dihydro-1H-pyrimido[4,5-d]pyrimidin-2-one; enantiomer 2] | 5.53 | 5.87 | 
CC1c2cnc(Nc3ccc4c(c3)S(=O)(=O)CC(=O)N4C)nc2N(C)C(=O)N1c1ccccc1Br (single isomer, unassigned; enantiomer 2) [Example 13-51, 3-(2-Bromo-phenyl)-1,4-dimethyl-7-(4-methyl-1,1,3-trioxo-1,2,3,4-tetrahydro-1λ^6-benzo[1,4]thiazin-7-ylamino)-3,4-dihydro-1H-pyrimido[4,5-d]pyrimidin-2-one; enantiomer 2] | 5.60 | 5.89 | 
CC(=O)N1CCC2(CC1)Oc1ccc(Nc3ncc4c(n3)N(C)C(=O)N(c3ccccc3Br)C4)cc1O2 [Example 6, 3-(2-bromo-phenyl)-3,4-dihydro-7-(1′-acetyl-spiro[1,3-benzodioxolo-2,4′-piperidine]-5-yl)amino-1-methyl-pyrimido[4,5-d]pyrimidin-2(1H)-one] |  |  | 315 (h * ng/ml))/(mg/kg)
CN1C(=O)N(c2c(F)cccc2Br)Cc2cnc(Nc3ccc4c(c3)S(=O)(=O)CCO4)nc21 [Example 8, 3-(2-bromo-6-fluoro-phenyl)-7-(4,4-dioxo-3,4-dihydro-2H-4λ^6-benzo[1,4]oxathiin-6-ylamino)-1-methyl-3,4-dihydro-1H-pyrimido[4,5-d]pyrimidin-2-one] | 8.74 | 8.33 | 
CN1CCS(=O)(=O)c2cc(Nc3ncc4c(n3)N(C)C(=O)N(c3c(F)cccc3Br)C4)ccc21 [Example 11, 3-(2-bromo-6-fluoro-phenyl)-1-methyl-7-(4-methyl-1,1-dioxo-1,2,3,4-tetrahydro-1lambda*6*-benzo[1,4]thiazin-7-ylamino)-3,4-dihydro-1H-pyrimido[4,5-d]pyrimidin-2-one] | 9.10 | 8.37 | 
CN1Cc2ccc(Nc3ncc4c(n3)N(C)C(=O)N(c3ccccc3Br)C4)cc2C1 [Example 13-3, 3-(2-bromo-phenyl)-1-methyl-7-(2-methyl-2,3-dihydro-1H-isoindol-5-ylamino)-3,4-dihydro-1H-pyrimido[4,5-d]pyrimidin-2-one; hydrochloride salt] | 8.82 | 8.38 | 
CN1C(=O)N(c2ccccc2Br)Cc2cnc(Nc3ccc4c(c3)S(=O)(=O)CO4)nc21 [Example 13-4, 3-(2-bromo-phenyl)-7-(3,3-dioxo-2,3-dihydro-3lambda*6*-benzo[1,3]oxathiol-5-ylamino)-1-methyl-3,4-dihydro-1H-pyrimido[4,5-d]pyrimidin-2-one] | 7.77 | 7.53 | 
CN1C(=O)N(c2ccccc2Br)Cc2cnc(Nc3ccc4c(c3)OCO4)nc21 [Example 13-8, 7-(benzo[1,3]dioxol-5-ylamino)-3-(2-bromo-phenyl)-1-methyl-3,4-dihydro-1H-pyrimido[4,5-d]pyrimidin-2-one] | 7.77 | 7.70 | 
CN1C(=O)c2ccc(Nc3ncc4c(n3)N(C)C(=O)N(c3c(F)cccc3Br)C4)cc2C1=O [Example 13-16, 5-[6-(2-bromo-6-fluoro-phenyl)-8-methyl-7-oxo-5,6,7,8-tetrahydro-pyrimido[4,5-d]pyrimidin-2-ylamino]-2-methyl-isoindole-1,3-dione] | 7.96 | 7.68 | 
O=C1CS(=O)(=O)c2cc(Nc3ncc4c(n3)NC(=O)N(c3c(F)cccc3Br)C4)ccc2N1 [Example 13-29] | 8.60 | 8.17 | 
COc1ccc(Br)c(N2Cc3cnc(Nc4ccc5c(c4)S(=O)(=O)CCO5)nc3N(C)C2=O)c1 [Example 13-48, 3-(2-Bromo-5-methoxy-phenyl)-7-(4,4-dioxo-3,4-dihydro-2H-4λ^6-benzo[1,4]oxathiin-6-ylamino)-1-methyl-3,4-dihydro-1H-pyrimido[4,5-d]pyrimidin-2-one] | 7.14 | 7.43 | 
COc1cccc(F)c1N1Cc2cnc(Nc3ccc4c(c3)S(=O)(=O)CCO4)nc2N(C)C1=O [Example 13-49, 7-(4,4-Dioxo-3,4-dihydro-2H-4λ^6-benzo[1,4]oxathiin-6-ylamino)-3-(2-fluoro-6-methoxy-phenyl)-1-methyl-3,4-dihydro-1H-pyrimido[4,5-d]pyrimidin-2-one] | 8.14 | 8.27 | 
CN1C(=O)N(c2c(F)cccc2C#N)Cc2cnc(Nc3ccc4c(c3)S(=O)(=O)CCO4)nc21 [Example 13-53, 2-[7-(4,4-Dioxo-3,4-dihydro-2H-4λ^6-benzo[1,4]oxathiin-6-ylamino)-1-methyl-2-oxo-1,4-dihydro-2H-pyrimido[4,5-d]pyrimidin-3-yl]-3-fluoro-benzonitrile] | 8.37 | 7.89 | 
CCN(CC)CCOc1ccc(Nc2ncc3c(n2)N(C)C(=O)N(c2ccccc2Br)C3)cc1 [Reference cpd 43 from WO 00/24744A, 3-(2-bromo-phenyl)-7-[4-(2-diethylamino-ethoxy)-phenylamino]-1-methyl-3,4-dihydro-1H-pyrimido[4,5-d]pyrimidin-2-one, reference compound] |  |  | 69.3 (h * ng/ml))/(mg/kg)
